Data as given in patent US9012036B2, “Organometallic complex, composition and light emitting element including the organometallic complex” (Semiconductor Energy Laboratory Co., Ltd., priority 2007, dated 2015).

How the values were obtained:
[1] = solubility test in various solvents; type: physicochemical; conditions: for solubility in dimethylformamide (DMF) / solubility x, Solvents not having aromatic ring DMF: solvent DMF; for solubility in chloroform / solubility x, Solvents not having aromatic ring chloroform: solvent chloroform; for solubility in dioxane / solubility x, Ethers dioxane: solvent dioxane; for solubility in toluene / solubility x, sovents having aromatic ring toluene: solvent toluene
Procedure: In this Example, the solubility of an organometallic complex including a pyrazine skeleton described in Embodiment Mode 1 was measured. The measurement was performed by examining the solubility in various solvents: 2-ethoxyethanol, isopropanol, and ethanol, which are alcohols; dioxane, which is ether; chloroform and dimethylformamide (DMF), which are an organic solvent not including an aromatic ring; and toluene, which is an aromatic hydrocarbon-based solvent.
Among the complexes disclosed in Embodiment Mode 1, [Ir(tppr)2(dpm)] represented by the structural formula (147), which was synthesized in Example 1, is selected as a measurement object. The solubility was investigated. […]

[2] = decomposition temperature by differential thermal balance (TG-DTA); type: physicochemical; conditions: temperature increase rate 10° C./min, normal atmospheric pressure
Procedure: The decomposition temperature of the obtained organometallic complex of the present invention, [Ir(tppr)2(dpm)], was measured with a high vacuum differential type differential thermal balance (TG-DTA2410SA, manufactured by Bruker AXS K.K.). The temperature increase rate was 10° C./min, and the temperature was increased under normal atmospheric pressure.

Substance: bis(2,3,5-triphenylpyrazinato)(dipivaloylmethanato)iridium(III) [Ir(tppr)2(dpm)]
- solubility x, Alcohols 2-ethoxyethanol ([1]; solvent 2-ethoxyethanol): ⊚ (x ≧ 1.2)
- solubility in dimethylformamide (DMF) [1]: ≥ 1200 µg/mL
- solubility x, Solvents not having aromatic ring DMF [1]: ⊚ (x ≧ 1.2)
- solubility in chloroform [1]: ≥ 1200 µg/mL
- solubility x, Solvents not having aromatic ring chloroform [1]: ⊚ (x ≧ 1.2)
- solubility in dioxane [1]: ≥ 1200 µg/mL
- solubility x, Ethers dioxane [1]: ⊚ (x ≧ 1.2)
- solubility in ethanol ([1]; solvent ethanol): ≥ 600 µg/mL
- solubility x, Alcohols ethanol ([1]; solvent ethanol): Δ (0.9 > x ≧ 0.6)
- solubility in isopropanol ([1]; solvent isopropanol): ≥ 600 µg/mL
- solubility x, Alcohols isopropanol ([1]; solvent isopropanol): Δ (0.9 > x ≧ 0.6)
- solubility in toluene [1]: ≥ 600 µg/mL
- solubility x, sovents having aromatic ring toluene [1]: Δ (0.9 > x ≧ 0.6)
- decomposition temperature (reduction in weight by 5%) [2]: 327 °C

Substance: bis(2,3,5-triphenylpyrazinato)(pivaloyltrifluoroacetonato)iridium(III) [Ir(tppr)2(pFac)]
- solubility in dimethylformamide (DMF) [1]: ≥ 1200 µg/mL
- solubility x, Solvents not having aromatic ring DMF [1]: ⊚ (x ≧ 1.2)
- solubility in chloroform [1]: ≥ 1200 µg/mL
- solubility x, Solvents not having aromatic ring chloroform [1]: ⊚ (x ≧ 1.2)
- solubility in dioxane [1]: ≥ 1200 µg/mL
- solubility x, Ethers dioxane [1]: ⊚ (x ≧ 1.2)
- solubility in toluene [1]: ≥ 1200 µg/mL
- solubility x, sovents having aromatic ring toluene [1]: ⊚ (x ≧ 1.2)
